Test results: ChEMBL document CHEMBL5727755, “Boronic acid derivatives” (2020)
pIC50: −log10 of the molar value.

Experiment: Determination of LMP7 Activity: Measurement of LMP7 inhibition is performed in 384 well format based on fluorescence intensity assay.Purified human immuno proteasome (0.25 nM) and serial diluted compounds in DMSO (range of concentrations from 30 μM to 15 pM) or controls are incubated for 20 minutes or 120 minutes (long incubation) at 25° C. in assay buffer containing 50 mM Tris pH 7.4, 0.03% SDS, 1 mM EDTA and 1% DMSO. The reaction is initiated by the addition of the fluorogenic peptide substrate, Suc-LLVY-AMC (Bachem 1-1395), at a concentration of 40 μM. After 60 minutes of incubation at 37° C., fluorescence intensity is measured at λex=350 nm and λem=450 nm with a fluorescence reader (Perkin Elmer Envision reader or equivalent).

SMILES	pIC50	IC50
CC#CC(=O)N(CCC)CC(=O)N[C@@H](Cc1ccc(C)cc1C)B(O)O	> 7.30	
C=CS(=O)(=O)N(C)CC(=O)N[C@@H](Cc1ccc(C)c(C)c1)B(O)O		in the range around 275 nM
